Measurements as given in ChEMBL document CHEMBL5352415, “Discovery of new macrophage M2 polarization modulators as multiple sclerosis treatment agents that enable the inflammation microenvironment remodeling” (Eur J Med Chem, 2022).

Experiments:
[1] = Induction of M2 macrophage polarization in C57BL/6 mouse BMDM cells assessed as fold increase in Arg1 gene level at 1 uM incubated for 24 hrs by qRT-PCR analysis; format: functional
[2] = Induction of M2 macrophage polarization in C57BL/6 mouse BMDM cells assessed as fold increase in Ym1 gene level at 1 uM incubated for 24 hrs by qRT-PCR analysis; format: functional
[3] = molecular target: RAC-alpha serine/threonine-protein kinase (Homo sapiens, UniProt P31749); assay: Inhibition of AKT1 (unknown origin); format: binding
Chain of RAC-alpha serine/threonine-protein kinase (Homo sapiens, UniProt P31749) (P31749 whole entry): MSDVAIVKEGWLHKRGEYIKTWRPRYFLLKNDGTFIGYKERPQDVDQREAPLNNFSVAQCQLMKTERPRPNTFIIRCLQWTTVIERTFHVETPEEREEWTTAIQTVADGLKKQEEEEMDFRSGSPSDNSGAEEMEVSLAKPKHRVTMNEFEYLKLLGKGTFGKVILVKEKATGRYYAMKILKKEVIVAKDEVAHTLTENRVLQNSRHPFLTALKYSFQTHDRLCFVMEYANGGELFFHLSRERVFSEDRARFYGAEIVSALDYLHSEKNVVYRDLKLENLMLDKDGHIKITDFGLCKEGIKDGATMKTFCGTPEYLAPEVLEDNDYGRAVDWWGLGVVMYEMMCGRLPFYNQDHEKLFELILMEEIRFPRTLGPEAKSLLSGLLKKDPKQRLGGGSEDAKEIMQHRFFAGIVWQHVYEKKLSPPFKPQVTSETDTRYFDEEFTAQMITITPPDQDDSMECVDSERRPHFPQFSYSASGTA

[4] = molecular target: RAC-beta serine/threonine-protein kinase (Homo sapiens, UniProt P31751); assay: Inhibition of AKT2 (unknown origin); format: binding
Chain of RAC-beta serine/threonine-protein kinase (P31751 whole entry): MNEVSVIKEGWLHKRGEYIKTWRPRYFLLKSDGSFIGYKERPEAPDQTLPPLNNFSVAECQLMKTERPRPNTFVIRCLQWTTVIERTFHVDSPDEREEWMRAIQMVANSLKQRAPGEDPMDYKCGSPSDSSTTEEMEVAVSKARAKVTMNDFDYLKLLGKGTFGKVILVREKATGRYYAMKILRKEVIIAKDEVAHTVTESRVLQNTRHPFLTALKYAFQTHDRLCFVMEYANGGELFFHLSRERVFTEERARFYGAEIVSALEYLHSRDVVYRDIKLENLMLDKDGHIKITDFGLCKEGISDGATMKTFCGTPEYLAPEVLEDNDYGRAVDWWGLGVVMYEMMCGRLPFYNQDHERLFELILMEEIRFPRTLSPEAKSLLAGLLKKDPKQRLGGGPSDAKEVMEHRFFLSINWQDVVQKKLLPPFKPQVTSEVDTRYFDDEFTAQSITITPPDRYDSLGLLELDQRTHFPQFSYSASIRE

[5] = Inhibition of LPS-induced M1 macrophage polarization in C57BL/6 mouse BMDM cells assessed as fold decrease in Inos gene level at 1 uM preincubated with LPS for 24 hrs followed by compound addition and measured after 24 hrs by qRT-PCR analysis (reference value: 524.05 +/- 24.75); format: functional
[6] = Inhibition of M1 macrophage polarization in C57BL/6 mouse BMDM cells assessed as fold decrease in Inos gene level at 1 uM incubated for 24 hrs by qRT-PCR analysis (reference value: 1); format: functional
[7] = molecular target: T1, RAC-alpha serine/threonine-protein kinase (Mus musculus, UniProt P31750); assay: Inhibition of Akt phosphorylation at Ser473 in C57BL/6 mouse BMDM cells at 50 to 500 nM incubated for 24 hrs by Western blot analysis; format: cell-based; settings: 0.5 µM, dose 50-500 nM
T1 sequence (P31750 whole entry): as the sequence (P31749 whole entry) above, with S2N, A50S, T100A, K112R, E117T, K389T, G410N, H415D counted along it

[8] = molecular target: T1, RAC-alpha serine/threonine-protein kinase; assay: Inhibition of LPS-induced Akt phosphorylation at Ser473 in C57BL/6 mouse BMDM cells at 50 to 500 nM incubated for 24 hrs by Western blot analysis; format: cell-based; settings: 0.5 µM, dose 50-500 nM

SMILES | fold change (FC) [1] | fold change (FC) [2] | IC50 [3] [nM] | IC50 [4] [nM] | fold change (FC) [5] | fold change (FC) [6] | inhibition (INH) [7] | inhibition (INH) [8]
Cn1nccc1-c1ccc2c(c1)CN([C@@H]1CNCC[C@H]1c1ccc(F)c(F)c1)C2=O | 2.24 | 3.59 | 4.3 |  |  |  |  | 
Cn1ncc(Cl)c1-c1ccc(C(=O)N[C@@H]2CNCC[C@H]2c2ccc(F)c(F)c2)cc1 | 2.41 | 8.63 | 5 |  |  |  |  | 
Cc1cc(C(=O)N[C@@H]2CNCC[C@H]2c2ccc(F)c(F)c2)ccc1-c1c(Br)cnn1C.Cl | 2.62 | 4.87 | 341 | > 1000 |  |  |  | 
CCCc1cc(C(=O)N[C@@H]2CNCC[C@H]2c2ccc(F)c(F)c2)ccc1-c1c(Br)cnn1C.Cl | 1.42 | 3.86 | > 1000 | > 1000 |  |  |  | 
CCCc1cc(C(=O)N[C@@H]2CNCC[C@H]2c2ccc(F)c(F)c2)ccc1-c1ccnn1C.Cl | 1.43 | 3.84 | 92 |  |  |  |  | 
CCCc1cc(C(=O)N[C@@H]2CNCC[C@H]2c2ccc(F)c(F)c2)ccc1-c1c(Cl)cnn1C.Cl | 1.92 | 3.47 | 245 |  |  |  |  | 
Cl.Cn1ncc(Cl)c1-c1ccc(C(=O)N[C@@H]2CNCC[C@H]2c2ccc(F)c(F)c2)cc1C1CC1 | 2.62 | 3.51 | 143 |  |  |  |  | 
Cc1cc(C(=O)N[C@@H]2CNCC[C@H]2c2ccc(F)c(F)c2)ccc1-c1ccnn1C.Cl | 8.13 | 14.49 | 102 |  | 313.7 | 0.82 |  | 
CC(C)c1cc(C(=O)N[C@@H]2CNCC[C@H]2c2ccc(F)c(F)c2)ccc1-c1c(Br)cnn1C.Cl | 2.6 | 4.49 | > 1000 | > 1000 |  |  |  | 
Cc1cc(C(=O)N[C@@H]2CNCC[C@H]2c2ccc(F)c(F)c2)ccc1-c1c(Cl)cnn1C.Cl | 1.55 | 12.2 | 299 |  |  |  | Not Active | Not Active
Cl.Cn1nccc1-c1ccc(C(=O)N[C@@H]2CNCC[C@H]2c2ccc(F)c(F)c2)cc1C1CC1 | 3.31 | 1.38 | 157 | > 1000 |  |  |  | 
Cl.O=C(N[C@@H]1CNCC[C@H]1c1ccc(F)c(F)c1)c1c(F)cc(-c2[nH]ncc2Br)cc1F | 2.38 | 19.79 | > 1000 |  |  |  |  | 
Cl.O=C(N[C@@H]1CNCC[C@H]1c1ccc(F)c(F)c1)c1c(F)cc(-c2ccn[nH]2)cc1Cl | 1.39 | 1.94 | 69.2 |  |  |  |  | 
CC(C)c1cc(C(=O)N[C@@H]2CNCC[C@H]2c2ccc(F)c(F)c2)ccc1-c1c(Cl)cnn1C.Cl | 2.77 | 5.03 | 69.3 |  |  |  |  | 
CC(C)c1cc(C(=O)N[C@@H]2CNCC[C@H]2c2ccc(F)c(F)c2)ccc1-c1ccnn1C.Cl | 2.06 | 2.06 | 555 | > 1000 |  |  |  | 
Cn1ncc(Br)c1-c1ccc2c(c1)CN([C@@H]1CNCC[C@H]1c1ccc(F)c(F)c1)C2=O | 1.93 | 7.52 | 1.6 | 2.7 |  |  |  | 
Cl.O=C(N[C@@H]1CNCC[C@H]1c1ccc(F)c(F)c1)c1c(F)cc(-c2ccn[nH]2)cc1F | 1.72 | 8.14 | 28 | > 1000 |  |  |  | 
